Measured values as given in patent US8722849B2, “Polypeptides” (Novo Nordisk A/S, priority 2011, dated 2014).
Converted amounts (≈) assume the structure as drawn. Where two headings read alike, the source gives them in different places. Starred links: 1 amine or outer side, 2 acyl side, 3 side chain; linkers in the order of their positions; H or OH if unused. Positions of bridges follow the written chain, without caps; N, C: chain ends. Residues, ends and D or L forms follow the SMILES beside them. *: point of attachment. C20 diacid = O=C(O)CCCCCCCCCCCCCCCCCCC(=O)*; γGlu = O=C(O)[C@H](CCC(=O)[*:2])N[*:1]

Key:
[1] = molecular target: T1, human amylin receptor (amylin 3(a) receptor: human calcitonin receptor + RAMP-3) (Homo sapiens, UniProt O60896+P30988); test: Assay (II)a functional CRE-luciferase assay, human amylin receptor; assay type: cell-based
T1 construct: expressed in transfected cells; host or cells: BHK570
T1 sequence (P30988 25-474): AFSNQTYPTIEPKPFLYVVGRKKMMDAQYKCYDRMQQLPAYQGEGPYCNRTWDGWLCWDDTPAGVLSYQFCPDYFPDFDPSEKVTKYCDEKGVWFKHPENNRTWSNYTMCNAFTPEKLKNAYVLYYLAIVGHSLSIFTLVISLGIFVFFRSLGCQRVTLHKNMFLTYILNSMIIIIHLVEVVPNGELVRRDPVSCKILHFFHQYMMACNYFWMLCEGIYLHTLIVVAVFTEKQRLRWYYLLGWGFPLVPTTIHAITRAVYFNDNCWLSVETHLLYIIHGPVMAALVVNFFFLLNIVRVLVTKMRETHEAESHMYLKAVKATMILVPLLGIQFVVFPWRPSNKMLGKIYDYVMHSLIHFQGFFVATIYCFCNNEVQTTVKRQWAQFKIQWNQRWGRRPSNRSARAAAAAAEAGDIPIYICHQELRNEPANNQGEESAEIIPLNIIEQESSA
T1 sequence (O60896 24-148 partner): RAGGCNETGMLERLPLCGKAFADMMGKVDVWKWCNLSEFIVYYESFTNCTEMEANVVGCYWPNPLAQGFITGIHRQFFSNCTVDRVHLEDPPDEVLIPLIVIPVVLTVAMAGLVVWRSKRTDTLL

[2] = molecular target: T2, human calcitonin receptor (Homo sapiens, UniProt P30988); test: Assay (II)a functional CRE-luciferase assay, human calcitonin receptor; assay type: cell-based
T2 construct: expressed in transfected cells; host or cells: BHK570
T2 sequence (P30988 25-474): T1 sequence (P30988 25-474)

[3] = Assay (IV) determination of solubility; assay type: physicochemical
In short: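 Polypeptide in water (~500 nmol/ml) mixed 1:1 with 100 mM glycylglycine (pH 3.0–5.0) or bistrispropane (pH 6.0–8.0) buffers. Held 18 hours at room temperature, then centrifuged. Polypeptide remaining in solution quantified by HPLC.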

[4] = Assay (III) ThT fibrillation assay for physical stability; assay type: physicochemical; settings: ThT fibrillation assay
In short: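 Freshly prepared formulations, pH-adjusted, with 1 μM ThT; four or eight replicates incubated at 37 °C under 960 rpm orbital shaking. Fluorescence (ex 444/em 485 nm) read every 20 min; […]. Peptide concentration measured by RP-HPLC before and after the run.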

[5] = Table 2, BHK amylin 3(a)-receptor/CRE-luc cells
[6] = Table 7, human calcitonin (CTa) receptor
[7] = bistrispropane buffer, pH 6, pH 6.0, read-out: Solubility pH 6.0
[8] = bistrispropane buffer, pH 6.5, pH 6.5, read-out: Solubility pH 6.5
[9] = bistrispropane buffer, pH 7, pH 7.0, 18 hours at room temperature, Table 3, read-out: Solubility pH 7.0
[10] = bistrispropane buffer, pH 7, pH 7.0, read-out: Solubility pH 7.0
[11] = bistrispropane buffer, pH 7.5, pH 7.5, read-out: Solubility pH 7.5
[12] = bistrispropane buffer, pH 8, pH 8.0, read-out: Solubility pH 8.0
[13] = glycylglycine buffer, pH 3, pH 3.0, read-out: Solubility pH 3.0
[14] = glycylglycine buffer, pH 4, pH 4.0, 18 hours at room temperature, Table 2, read-out: Solubility pH 4.0
[15] = glycylglycine buffer, pH 4, pH 4.0, read-out: Solubility pH 4.0
[16] = glycylglycine buffer, pH 5, pH 5.0, read-out: Solubility pH 5.0

Row | Structure (SMILES) | EC50 [1, 5] | EC50 [2, 6] | solubility at 18 h [3, 7] | solubility at 18 h [3, 8] | solubility at 18 h [3, 9] | solubility at 18 h [3, 10] | solubility at 18 h [3, 11] | solubility at 18 h [3, 12] | solubility at 18 h [3, 13] | solubility at 18 h [3, 14] | solubility at 18 h [3, 15] | solubility at 18 h [3, 16] | ThT pH 4.0 lag time (h) [4] | EC50 ([1]; Table 11) | EC50 ([2]; Table 11, read-out: CTa receptor human EC50) | solubility at 18 h ([3]; pH 8.0, read-out: Solubility pH 8.0) | ThT pH 4.0 lag time [4]
1 | CC[C@H](C)[C@H](NC(=O)[C@@H]1CCCN1C(=O)CNC(=O)[C@H](Cc1ccccc1)NC(=O)[C@H](CC(N)=O)NC(=O)[C@H](CC(N)=O)NC(=O)[C@H](CO)NC(=O)[C@H](CO)NC(=O)[C@H](Cc1c[nH]cn1)NC(=O)[C@H](Cc1c[nH]cn1)NC(=O)[C@H](CC(C)C)NC(=O)[C@H](Cc1ccccc1)NC(=O)[C@H](CCC(=O)O)NC(=O)[C@H](C)NC(=O)[C@H](CC(C)C)NC(=O)[C@H](CCCNC(=N)N)NC(=O)[C@H](CCC(N)=O)NC(=O)[C@@H](NC(=O)[C@H](C)NC(=O)[C@@H]1CSSC[C@H](NC(=O)[C@H](CO)NC(=O)CC[C@H](NC(=O)CCCCCCCCCCCCCCCCCCC(=O)O)C(=O)O)C(=O)N[C@@H](CC(N)=O)C(=O)N[C@@H]([C@@H](C)O)C(=O)N[C@@H](C)C(=O)N[C@@H]([C@@H](C)O)C(=O)N1)[C@@H](C)O)C(=O)N[C@@H](CC(C)C)C(=O)N1CCC[C@H]1C(=O)N1CCC[C@H]1C(=O)N[C@H](C(=O)N[C@@H](CC(N)=O)C(=O)N[C@H](C(=O)NCC(=O)N[C@@H](CO)C(=O)N[C@@H](CC(N)=O)C(=O)N[C@H](C(=O)N1CCC[C@H]1C(N)=O)[C@@H](C)O)C(C)C)[C@@H](C)O [Example 106, N-alpha-[(S)-4-Carboxy-4-(19-carboxynonadecanoylamino)butyryl]-[Ser1,Glu14,His17,Pro37]-pramlintide] ({C20 diacid-γGlu}-SCNTATCATQRLAEFLHHSSNNFGPILPPTNVGSNTP-NH2; disulfide 2-7 (inferred); C-terminus assumed) | 0.0625 nM | 0.0705 nM | > 200 µM | > 200 µM | > 200 µM | > 200 µM | > 200 µM | > 200 µM | > 200 µM | > 200 µM | > 200 µM | > 200 µM | 9.7 h |  |  |  | 
2 | CC[C@H](C)[C@H](NC(=O)[C@@H]1CCCN1C(=O)CNC(=O)[C@H](Cc1ccccc1)NC(=O)[C@H](CC(N)=O)NC(=O)[C@H](CC(N)=O)NC(=O)[C@H](CO)NC(=O)[C@H](CO)NC(=O)[C@H](Cc1c[nH]cn1)NC(=O)[C@@H](NC(=O)[C@H](CC(C)C)NC(=O)[C@H](Cc1ccccc1)NC(=O)[C@H](CC(N)=O)NC(=O)[C@H](C)NC(=O)[C@H](CC(C)C)NC(=O)[C@H](CCCNC(=N)N)NC(=O)[C@H](CCC(N)=O)NC(=O)[C@@H](NC(=O)[C@H](C)NC(=O)[C@@H]1CSSC[C@H](NC(=O)[C@H](CCCNC(=N)N)NC(=O)CNC(=O)CC[C@H](NC(=O)CCCCCCCCCCCCCCCCCCC(=O)O)C(=O)O)C(=O)N[C@@H](CC(N)=O)C(=O)N[C@@H]([C@@H](C)O)C(=O)N[C@@H](C)C(=O)N[C@@H]([C@@H](C)O)C(=O)N1)[C@@H](C)O)C(C)C)C(=O)N[C@@H](CC(C)C)C(=O)N1CCC[C@H]1C(=O)N1CCC[C@H]1C(=O)N[C@H](C(=O)N[C@@H](CC(N)=O)C(=O)N[C@H](C(=O)NCC(=O)N[C@@H](CO)C(=O)N[C@@H](Cc1c[nH]cn1)C(=O)N[C@H](C(=O)N[C@@H](Cc1ccc(O)cc1)C(N)=O)[C@@H](C)O)C(C)C)[C@@H](C)O [Example 99, N-alpha-[(S)-4-Carboxy-4-(19-carboxynonadecanoylamino)butyryl]-Gly-[Arg1,His35]-pramlintide] ({C20 diacid-γGlu}-GRCNTATCATQRLANFLVHSSNNFGPILPPTNVGSHTY-NH2; disulfide 3-8 (inferred); C-terminus assumed) |  |  | 2 µM (≈ 9.02 µg/mL) | 1 µM (≈ 4.51 µg/mL) |  | 1 µM (≈ 4.51 µg/mL) | 1 µM (≈ 4.51 µg/mL) |  | > 200 µM |  | > 200 µM | > 200 µM | 1.7 h | 0.045 nM | 0.0875 nM | 1 µM (≈ 4.51 µg/mL) | 
3 | CC[C@H](C)[C@H](NC(=O)[C@@H]1CCCN1C(=O)CNC(=O)[C@H](Cc1ccccc1)NC(=O)[C@H](CC(N)=O)NC(=O)[C@H](CC(N)=O)NC(=O)[C@H](CO)NC(=O)[C@H](CO)NC(=O)[C@H](Cc1c[nH]cn1)NC(=O)[C@H](Cc1c[nH]cn1)NC(=O)[C@H](CC(C)C)NC(=O)[C@H](Cc1ccccc1)NC(=O)[C@H](CCC(=O)O)NC(=O)[C@H](C)NC(=O)[C@H](CC(C)C)NC(=O)[C@H](CCCNC(=N)N)NC(=O)[C@H](CCC(=O)O)NC(=O)[C@@H](NC(=O)[C@H](C)NC(=O)[C@@H]1CSSC[C@H](NC(=O)[C@H](CCCCN)NC(=O)CC[C@H](NC(=O)CCCCCCCCCCCCCCCCCCC(=O)O)C(=O)O)C(=O)N[C@@H](CC(N)=O)C(=O)N[C@@H]([C@@H](C)O)C(=O)N[C@@H](C)C(=O)N[C@@H]([C@@H](C)O)C(=O)N1)[C@@H](C)O)C(=O)N[C@@H](CC(C)C)C(=O)N1CCC[C@H]1C(=O)N1CCC[C@H]1C(=O)N[C@H](C(=O)N[C@@H](CC(N)=O)C(=O)N[C@H](C(=O)NCC(=O)N[C@@H](CO)C(=O)N[C@@H](CC(N)=O)C(=O)N[C@H](C(=O)N[C@@H](Cc1ccc(O)cc1)C(N)=O)[C@@H](C)O)C(C)C)[C@@H](C)O [Example 54, N-alpha-[(S)-4-Carboxy-4-(19-carboxynonadecanoylamino)butyryl]-[Glu10,Glu14,His17]-pramlintide] ({C20 diacid-γGlu}-KCNTATCATERLAEFLHHSSNNFGPILPPTNVGSNTY-NH2; disulfide 2-7 (inferred)) | 0.13 nM | 0.199 nM | 100 µM (≈ 446 µg/mL) | 150 µM (≈ 669 µg/mL) | > 200 µM | > 200 µM | > 200 µM | > 200 µM | > 200 µM | > 200 µM | > 200 µM | > 200 µM | 23 h |  |  |  | 
4 | CC[C@H](C)[C@H](NC(=O)[C@@H]1CCCN1C(=O)CNC(=O)[C@H](Cc1ccccc1)NC(=O)[C@H](CC(N)=O)NC(=O)[C@H](CC(N)=O)NC(=O)[C@H](CO)NC(=O)[C@H](CO)NC(=O)[C@H](CCCNC(=N)N)NC(=O)[C@H](Cc1c[nH]cn1)NC(=O)[C@H](CC(C)C)NC(=O)[C@H](Cc1ccccc1)NC(=O)[C@H](CCC(=O)O)NC(=O)[C@H](C)NC(=O)[C@H](CC(C)C)NC(=O)[C@H](CCCNC(=N)N)NC(=O)[C@H](CCC(N)=O)NC(=O)[C@@H](NC(=O)[C@H](C)NC(=O)[C@@H]1CSSC[C@H](NC(=O)[C@H](CCCCN)NC(=O)CC[C@H](NC(=O)CCCCCCCCCCCCCCCCCCC(=O)O)C(=O)O)C(=O)N[C@@H](CC(N)=O)C(=O)N[C@@H]([C@@H](C)O)C(=O)N[C@@H](C)C(=O)N[C@@H]([C@@H](C)O)C(=O)N1)[C@@H](C)O)C(=O)N[C@@H](CC(C)C)C(=O)N1CCC[C@H]1C(=O)N1CCC[C@H]1C(=O)N[C@H](C(=O)N[C@@H](CC(N)=O)C(=O)N[C@H](C(=O)NCC(=O)N[C@@H](CO)C(=O)N[C@@H](Cc1c[nH]cn1)C(=O)N[C@H](C(=O)N[C@@H](Cc1ccc(O)cc1)C(N)=O)[C@@H](C)O)C(C)C)[C@@H](C)O [Example 78, N-alpha-[(S)-4-Carboxy-4-(19-carboxynonadecanoylamino)butyryl]-[Glu14,His17,Arg18,His35]-pramlintide] ({C20 diacid-γGlu}-KCNTATCATQRLAEFLHRSSNNFGPILPPTNVGSHTY-NH2; disulfide 2-7 (inferred); C-terminus assumed) | 0.0685 nM | 0.0965 nM | > 200 µM | > 200 µM | 122 µM (≈ 549 µg/mL) | 122 µM (≈ 549 µg/mL) | 92 µM (≈ 414 µg/mL) | 79 µM (≈ 355 µg/mL) | > 200 µM | > 200 µM | > 200 µM | > 200 µM | >45 h |  |  |  | >45 h
